In patent publication EP0639197B1, “EXCITATORY AMINO ACID ANTAGONISTS” (GUILFORD PHARMACEUTICALS INC., priority 1990, dated 1992):

Assays:
NMDA receptors = assay: Inhibition of specific binding of [3H]CGS-19755 to rat forebrain membranes; details: for IC50: [3H]CGS-19755 4.62 x 10^-9 M, rat forebrain membranes, 20min, 23 C, enriched mixtures, less than about 95% pure
Procedure: Binding studies: The potency of compounds to inhibit the specific binding of [^3H]CGS-19755 (specific activity 50.5 Ci/mmol, New England Nuclear, Boston, MA) to NMDA receptors was performed as described by Ferkany et al., (J. Pharmacology and Experimental Therapeutics, 1989, 250:100-109). Briefly, animals were sacrificed by decapitation, the forebrain removed immediately and the "buffy coat" prepared as described by Enna and Snyder (Enna, S. and Snyder, S.H., Molecular Pharmacology, 1977, 13:422-433). Crude synaptic membranes were stored frozen (-20 °C) until used. On the day of the assay, membranes were thawed to room temperature and homogenized in 20 vol (w/v) of assay buffer. The homogenate was centrifuged (48,000 x g; 10min; 4 °C), the supernatant decanted and the pellet resuspended as before. The procedure was repeated until the tissue had been washed 4 times to remove endogenous inhibitors.
For assay, the final pellet was resuspended in sufficient buffer (Tris HCl, 0.05M, pH 7.1, 23 °C) to yield a tissue concentration of 0.2mg of protein per ml. Two-milliliter portions of the suspension were added in duplicate to tubes containing ligand (final concentration = 4.62 x 10^- ^9 M) and the compound of interest ([…]). After an incubation of 20min (23 °C), the reaction was terminated by centrifugation, the supernatant was decanted and the pellets washed rapidly and superficially with 2 x 2.5ml of ice-cold buffer. Tissue was solubilized in Protosol (0.5 ml, New England Nuclear, Boston, MA) and after the addition of scintillant, radioactivity was determined using standard procedures.
Non specific binding was determined using L-glutamate at a final concentration of 10^-3 M. Routinely, IC50s were determined using 8-12 concentrations of inhibitor.

[1] = Rotorod test for motor impairment after i.c.v. administration; parameters: species or system male CF-1 mice; details: mouse, in vivo, icv or intrathecal; potency to impair rotorod performance; tested 10 minutes after i.c.v. administration; enriched mixtures, less than about 95% pure
Procedure: (§1) Anticonvulsant studies: The potency of the isomers of APCA to inhibit NMDA-induced seizures was evaluated using male CF-1 mice. All drugs were dissolved in isotonic saline and the pH adjusted to neutrality using NaOH. The test compounds were injected intracerebroventricularly (i.c.v.) in a final volume of […]. N-Methyl-D-aspartate (250mg/kg of body weight) was dissolved in saline (1% v/w of body weight) and injected intraperitoneally (i.p.) 15 minutes following the administration of the test agent. […] NMDA-induced seizures were defined as presence of tonic/clonic activity accompanied by hindlimb extension and death. Rotorod: Animals used for seizure studies were evaluated for motor impairment using the rotorod test. Before use all animals were tested for their ability to maintain equilibrium for 60 seconds on a 1-inch knurled bar rotating at a speed of 6 to 7 rpm. Each animal was given three separate trials. Animals performing the task in any of the three trials were used for further study.
Animals were tested for impairment 10 minutes after i.c.v. administration of the test agent and 5 minutes before administration of the seizure-inducing agent. Each animal was tested on a maximum of three trials; completion of any one of the trials was screened as passing.

[2] = Inhibition of NMDA-induced seizures after i.c.v. administration; type: in vivo, male CF-1 mice; details: mouse, in vivo, icv or intrathecal; ratio of rotorod TD50 to NMDA-seizure ED50; ICV administration
Procedure: as §1

NMDA-induced seizures = assay: as above; type: in vivo, male CF-1 mice; details: for ED50: Mus musculus, central, potency to inhibit NMDA-induced seizures, ICV administration 15 minutes before NMDA 250mg/kg i.p., mixtures enriched in the stated isomer, less than about 95% pure
Procedure: as §1

Compound	IC50 (NMDA receptors)	TD50 at 10 min [1]	selectivity ratio [2]	ED50 (NMDA-induced seizures)	fold more potent than cis isomer C, the next most potent isomer (NMDA receptors; binding data of Table 2)	fold more potent than the next most potent isomer (NMDA-induced seizures; in vivo effects of Table 1)
O=C(O)C1CN(CCCP(=O)(O)O)CCN1 (racemic) [(±) CPP, 4-(3-phosphonopropyl)-2-piperazine carboxylic acid, reference compound]	190 ± 15 nM	10 mg/kg	4.5	2.2 mg/kg	–	–
O=C(O)[C@H]1C[C@@H](CP(=O)(O)O)CCN1 (relative stereo) [CGS-19755, cis-4-(phosphonomethyl)-2-piperidinecarboxylic acid, reference compound]	–	17 mg/kg	6.4	2.64 mg/kg	–	–
N[C@H](C[C@H]1CCCC[C@H]1CCP(=O)(O)O)C(=O)O (single isomer, unassigned) [cis isomer A, 2-amino-4,5-(1,2-cyclohexyl)-7-phosphonoheptanoic acid]	270 ± 12 nM	32 mg/kg	30.5	1.05 mg/kg	approximately 8 fold	at least 25 fold
